“And” between values parts separate entries of the source, which are not always exact repeats. Equal entries are not always repeated. Inconclusive results and toxic doses are left out. Rule for the calls: active = survival T/C of 150% or more; inactive = T/C below 125% in these data.
Tested on: P388 leukemia ip, CD2F1 mice, survival T/C
Test: NCI In Vivo Anticancer Drug Screen. Data for tumor model P388 Leukemia (intraperitoneal) in CD2F1 (CDF1) mice
Settings: endpoint: median survival time, higher = longer survival
Outline: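 Mice carrying the transplanted tumor received test compound or vehicle. Survival was recorded in each group, and the value is the treated-group measurement divided by that of the vehicle-treated control group.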

[1] = dose: 50.0 mg/kg/injection, schedule: Q01DX005 (ip), vehicle: Klucel (hydroxypropylcellulose) (HPC)
[2] = dose: 100.0 mg/kg/injection, schedule: Q01DX005 (ip), vehicle: Klucel (hydroxypropylcellulose) (HPC)
[3] = dose: 200.0 mg/kg/injection, schedule: Q01DX005 (ip), vehicle: Klucel (hydroxypropylcellulose) (HPC)
[4] = dose: 25.0 mg/kg/injection, schedule: Q01DX009 (ip), vehicle: saline with Tween-80
[5] = dose: 50.0 mg/kg/injection, schedule: Q01DX009 (ip), vehicle: saline with Tween-80
[6] = dose: 60.0 mg/kg/injection, schedule: Q01DX005 (ip), vehicle: saline with Tween-80
[7] = dose: 120.0 mg/kg/injection, schedule: Q01DX005 (ip), vehicle: saline with Tween-80
[8] = dose: 240.0 mg/kg/injection, schedule: Q01DX005 (ip), vehicle: saline with Tween-80
[9] = dose: 50.0 mg/kg/injection, schedule: Q01DX009 (ip), vehicle: saline
[10] = dose: 100.0 mg/kg/injection, schedule: Q04DX003 (ip), vehicle: saline
[11] = dose: 200.0 mg/kg/injection, schedule: Q04DX003 (ip), vehicle: saline
[12] = dose: 400.0 mg/kg/injection, schedule: Q04DX003 (ip), vehicle: saline

Measured: T/C

COc1ccc(Nc2nnc(-c3ccc4c(c3)OCO4)o2)cc1
inactive: [1] 100 % of control | [2] 93 % of control | [3] 97 % of control

O=C1CN(Cc2ccc3c(c2)OCO3)NO1
inactive: [4] 111 % of control | [5] 104 % of control and 108 % of control | dose: 100.0 mg/kg/injection, schedule: Q01DX009 (ip), vehicle: saline with Tween-80 101 % of control | dose: 200.0 mg/kg/injection, schedule: Q01DX009 (ip), vehicle: saline with Tween-80 119 % of control and 86 % of control

O=c1ccn2c(=O)n1CCCCn1cnc3ncnc(c31)SCCC2
inactive: dose: 50.0 mg/kg/injection, schedule: Q01DX001 (ip), vehicle: Klucel (hydroxypropylcellulose) (HPC) 94 % of control | dose: 100.0 mg/kg/injection, schedule: Q01DX001 (ip), vehicle: Klucel (hydroxypropylcellulose) (HPC) 86 % of control | dose: 200.0 mg/kg/injection, schedule: Q01DX001 (ip), vehicle: Klucel (hydroxypropylcellulose) (HPC) 90 % of control | dose: 400.0 mg/kg/injection, schedule: Q01DX001 (ip), vehicle: Klucel (hydroxypropylcellulose) (HPC) 90 % of control

Nc1n[n+](-c2ccc3ccccc3c2)no1
inactive: dose: 3.13 mg/kg/injection, schedule: Q01DX009 (ip), vehicle: water 98 % of control | dose: 6.25 mg/kg/injection, schedule: Q01DX009 (ip), vehicle: water 109 % of control | dose: 12.5 mg/kg/injection, schedule: Q01DX009 (ip), vehicle: water 120 % of control | dose: 25.0 mg/kg/injection, schedule: Q01DX009 (ip), vehicle: water 120 % of control

COc1ccc2c(c1OC)C(=O)N1C2=Cc2c(cc3c(c2OC)OCO3)CC1N(C)C (configuration not stated)
inactive: dose: 60.0 mg/kg/injection, schedule: Q01DX005 (ip), vehicle: saline 103 % of control | dose: 120.0 mg/kg/injection, schedule: Q01DX005 (ip), vehicle: saline 100 % of control

O=S(=O)(Nc1ccn(-c2ccccc2)n1)c1ccc(NCc2c3ccccc3nc3cc(Cl)ccc23)cc1
inactive: [6] 99 % of control | [7] 91 % of control | [8] 93 % of control

O=C1OC2(C=C1Br)CCC21C=C(Br)C(=O)O1 (configuration not stated)
inactive: dose: 25.0 mg/kg/injection, schedule: Q01DX009 (ip), vehicle: Klucel (hydroxypropylcellulose) (HPC) 98 % of control

N=C(N)C1CC1
inactive: dose: 12.5 mg/kg/injection, schedule: Q01DX009 (ip), vehicle: saline 100 % of control | dose: 25.0 mg/kg/injection, schedule: Q01DX009 (ip), vehicle: saline 100 % of control | [9] 102 % of control

O=C(O)Cc1ccc2c(c1O)C(=O)c1ccccc1C2=O
inactive: dose: 12.5 mg/kg/injection, schedule: Q01DX005 (ip), vehicle: saline 98 % of control | dose: 25.0 mg/kg/injection, schedule: Q01DX005 (ip), vehicle: saline 104 % of control | dose: 50.0 mg/kg/injection, schedule: Q01DX005 (ip), vehicle: saline with Tween-80 112 % of control | dose: 50.0 mg/kg/injection, schedule: Q01DX005 (ip), vehicle: saline 107 % of control

COC1C(C)OC(OC2CC(C)(O)Cc3cc4c(c(O)c32)C(=O)c2c(O)cc3c(c2C4=O)OC2OC3(C)C(O)C(N(C)C)C2O)C(OC)C1(C)OC (configuration not stated)
active: dose: 1.0 mg/kg/injection, schedule: Q01DX009 (ip), vehicle: saline 151 % of control | dose: 1.25 mg/kg/injection, schedule: Q01DX009 (ip), vehicle: other 151 % of control | dose: 1.5 mg/kg/injection, schedule: Q01DX009 (ip), vehicle: saline 160 % of control | dose: 2.0 mg/kg/injection, schedule: Q01DX009 (ip), vehicle: saline 160 % of control | dose: 2.5 mg/kg/injection, schedule: Q01DX009 (ip), vehicle: saline 174 % of control | dose: 2.5 mg/kg/injection, schedule: Q04DX003 (ip), vehicle: other 153 % of control | dose: 3.0 mg/kg/injection, schedule: Q01DX009 (ip), vehicle: saline 169 % of control | dose: 4.0 mg/kg/injection, schedule: Q01DX009 (ip), vehicle: saline 180 % of control | dose: 5.0 mg/kg/injection, schedule: Q01DX009 (ip), vehicle: saline 193 % of control | dose: 5.0 mg/kg/injection, schedule: Q04DX003 (ip), vehicle: saline 150 % of control | dose: 6.0 mg/kg/injection, schedule: Q04DX003 (ip), vehicle: water 153 % of control | dose: 10.0 mg/kg/injection, schedule: Q04DX003 (ip), vehicle: other 165 % of control | dose: 10.0 mg/kg/injection, schedule: Q04DX003 (ip), vehicle: saline with Tween-80 157 % of control | dose: 10.0 mg/kg/injection, schedule: Q04DX003 (ip), vehicle: saline 156 % of control | dose: 10.0 mg/kg/injection, schedule: Q04DX003 (ip), vehicle: water 157 % of control | dose: 12.0 mg/kg/injection, schedule: Q04DX003 (ip), vehicle: saline 158 % of control | dose: 15.0 mg/kg/injection, schedule: Q04DX003 (ip), vehicle: saline with Tween-80 150 % of control | dose: 25.0 mg/kg/injection, schedule: Q01DX001 (ip), vehicle: other 157 % of control and 175 % of control | dose: 1250.0 micrograms/kg/injection, schedule: Q01DX009 (ip), vehicle: other 157 % of control | dose: 2500.0 micrograms/kg/injection, schedule: Q01DX009 (ip), vehicle: other 157 % of control and 172 % of control
inactive: dose: 0.6 mg/kg/injection, schedule: Q01DX009 (ip), vehicle: other 124 % of control | dose: 0.75 mg/kg/injection, schedule: Q04DX003 (ip), vehicle: saline 121 % of control | dose: 1.0 mg/kg/injection, schedule: Q04DX003 (ip), vehicle: saline 121 % of control | dose: 1.25 mg/kg/injection, schedule: Q04DX003 (ip), vehicle: other 124 % of control | dose: 12.5 mg/kg/injection, schedule: Q01DX001 (sc), vehicle: other 103 % of control | dose: 16.0 mg/kg/injection, schedule: Q04DX003 (ip), vehicle: saline 112 % of control | dose: 20.0 mg/kg/injection, schedule: Q04DX003 (ip), vehicle: other 124 % of control | dose: 25.0 mg/kg/injection, schedule: Q01DX001 (sc), vehicle: other 100 % of control and 102 % of control | dose: 50.0 mg/kg/injection, schedule: Q01DX001 (sc), vehicle: other 103 % of control and 105 % of control | dose: 100.0 mg/kg/injection, schedule: Q01DX001 (sc), vehicle: other 99 % of control | dose: 625.0 micrograms/kg/injection, schedule: Q01DX009 (ip), vehicle: other 118 % of control | dose: 5000.0 micrograms/kg/injection, schedule: Q01DX009 (ip), vehicle: other 90 % of control

CCOC(=O)c1noc(Oc2ccc(Cl)cc2Cl)n1
inactive: [6] 93 % of control | [7] 97 % of control | [8] 90 % of control

COC1CCC2=C(C1)C(=O)CC1c3ccccc3CN21 (configuration not stated)
inactive: dose: 12.5 mg/kg/injection, schedule: Q01DX009 (ip), vehicle: saline with Tween-80 100 % of control | [4] 100 % of control | [5] 100 % of control

Cc1ccc(S(=O)(=O)CC2(Br)Cc3ccccc3C2=O)cc1 (configuration not stated)
inactive: [10] 103 % of control | [11] 100 % of control | [12] 100 % of control

C=C1C[C@@]23CC[C@@H]4[C@](C)(CC[C@H](O)[C@]4(C)COC(=O)CCC(=O)O)[C@H]2CC[C@@H]1C3
inactive: [1] 101 % of control | [2] 100 % of control | [3] 99 % of control

CC(O)CCC(=O)c1nc2ccccc2s1 (configuration not stated)
inactive: dose: 60.0 mg/kg/injection, schedule: Q01DX005 (ip), vehicle: Klucel (hydroxypropylcellulose) (HPC) 95 % of control | dose: 120.0 mg/kg/injection, schedule: Q01DX005 (ip), vehicle: Klucel (hydroxypropylcellulose) (HPC) 100 % of control | dose: 240.0 mg/kg/injection, schedule: Q01DX005 (ip), vehicle: Klucel (hydroxypropylcellulose) (HPC) 98 % of control

CC1=NN(c2cccc(S(=O)(=O)O)c2)C(=O)C1N=Nc1cc(Cl)cc(S(=O)(=O)O)c1O.CC1=NN(c2cccc(S(=O)(=O)O)c2)C(=O)C1N=Nc1cc(Cl)cc(S(=O)(=O)O)c1O.[Cr] (configuration not stated)
inactive: [9] 111 % of control and 119 % of control | dose: 100.0 mg/kg/injection, schedule: Q01DX009 (ip), vehicle: saline 120 % of control and 122 % of control | dose: 200.0 mg/kg/injection, schedule: Q01DX009 (ip), vehicle: saline 123 % of control | dose: 400.0 mg/kg/injection, schedule: Q01DX009 (ip), vehicle: saline 122 % of control

O=C(CCS(=O)(=O)CCC(=O)c1cccs1)c1cccs1
inactive: [10] 90 % of control | [11] 90 % of control | [12] 90 % of control

— PubChem BioAssay AID330 (DTP/NCI, 2004)
